Source: ChEMBL document CHEMBL1159016, “Patellamide E: a new cyclic peptide from the ascidian Lissoclinum patella” (J Nat Prod, 1992)
In brackets after ≈: the same amount, converted by molar mass.

Tested on: HCT-116
Experiment: Cytotoxicity against human HCT116 cells
Assay type: functional, cell-based

`CC[C@H](C)[C@@H]1NC(=O)c2csc(n2)[C@@H](C(C)C)NC(=O)[C@H]2N=C(O[C@@H]2C)[C@H](C(C)C)NC(=O)c2csc(n2)[C@@H](Cc2ccccc2)NC(=O)[C@H]2N=C1O[C@@H]2C` [PATELLAMIDE E] was tested, and the IC50 was 125 µg/mL (≈ 158 µM).
